Values quoted from earlier work as cited in EP1649859A1, “Pharmaceutical compositions comprising at least one poorly diffusible anticancer drug and a olidodeoxynucleotide immunestimulant” (Institut Gustave Roussy, priority 2004, dated 2006).

Conditions: bléomycine seule à des doses sub-thérapeutiques

**Q.** With bléomycine as the substance, how does the activité antitumorale propre read?
**A.** ne possèdent pas d'activité antitumorale propre
